Experimental findings from patent US20020061599A1, “Method of identifying ligands of biological target molecules” (priority 1999, published 2002) are described below.

As a reminder, the Hill coefficient is the slope factor of the fitted curve. By IC50 is commonly meant the point on the concentration scale where inhibition reaches its midpoint.

Entries after “also recorded” stand apart in the source; their conditions may differ.

In test [1] the target is T1, galanin R1 receptor (Homo sapiens, UniProt P47211).
T1 construct: expressed in transfected cells; host or cells: COS-7
T1 sequence (P47211 1-349): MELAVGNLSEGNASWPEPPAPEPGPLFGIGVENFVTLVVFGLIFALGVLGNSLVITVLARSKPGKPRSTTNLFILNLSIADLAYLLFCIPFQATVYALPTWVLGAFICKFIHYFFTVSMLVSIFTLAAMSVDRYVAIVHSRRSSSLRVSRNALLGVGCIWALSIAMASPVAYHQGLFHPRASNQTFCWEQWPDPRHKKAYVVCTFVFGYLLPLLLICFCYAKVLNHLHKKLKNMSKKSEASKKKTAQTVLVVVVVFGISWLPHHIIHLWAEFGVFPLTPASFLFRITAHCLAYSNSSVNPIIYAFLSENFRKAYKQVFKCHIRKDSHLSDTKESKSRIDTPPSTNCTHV
The experiment in a line: Whole cell competition binding with [125I]-galanin in COS-7 cells expressing galanin receptor. The note with it: for binding affinity compared with the basic chelator 1,10-phenanthroline: chelator in complex with Cu(II). From the text:
Whole cell competition binding experiment with COS-7 cells expressing the wild type and mutant forms of the galanin receptor using [^125I]-galanin as radioligand.
Methods—The galanin receptor cDNA was introduced into COS-7 cells by the standard calcium phosphate transfection method. The cells were transferred and seeded in multi-well plates for assay one day following the transfection and the number of cells plated per well was adjusted for each individual (wild type and mutant) construct aiming at the binding of 5 to 10% of the radioligand present in the assay. Two days post-transfection the cells were assayed for the presence of [^125]-Galanin binding activity. Radioligand was bound in buffer composed of 25 mM Hepes (pH 7.4), 2.5 mM MgCl2, […] Baciacin and displaced in a dose dependent manner by unlabelled ligand. The assay was performed in triplicate for 3 hours at 4° C., and terminated by the addition of lysis buffer (48% urea, 2% NP-40 in 3M acetic acid). The concentration of radioligand in the assay corresponds to a final concentration of 20 pM.

Test [2] concerns the target T2, Factor VIIa (FVIIa) (Homo sapiens, UniProt P08709).
T2 construct: Factor VIIa, i.e. the active form of the FVII protease involved in the coagulation cascade; purchased American Diagnostica
T2 sequence (P08709 213-466 limits assumed): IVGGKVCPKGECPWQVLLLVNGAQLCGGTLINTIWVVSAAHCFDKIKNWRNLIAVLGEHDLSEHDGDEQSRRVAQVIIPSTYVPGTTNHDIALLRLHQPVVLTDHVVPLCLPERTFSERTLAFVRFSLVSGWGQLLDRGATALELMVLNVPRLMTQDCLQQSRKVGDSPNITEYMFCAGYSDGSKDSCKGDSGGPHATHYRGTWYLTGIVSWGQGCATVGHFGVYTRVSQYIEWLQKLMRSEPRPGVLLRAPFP
T2 sequence (P08709 61-212 partner limits assumed): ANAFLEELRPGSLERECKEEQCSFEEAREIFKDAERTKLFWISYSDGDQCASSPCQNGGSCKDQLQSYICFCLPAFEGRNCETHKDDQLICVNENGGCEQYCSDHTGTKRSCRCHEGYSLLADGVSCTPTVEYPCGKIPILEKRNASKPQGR
The experiment in a line: Amidolytic activity of Factor VIIa. It counts as biochemical. The note with it: for effect on the activity of FVIIa: chelator without metal-ions. As for the experimental part: Method—The amidolytic activity of Factor VIIa (FVIIa) was measured by the incubation of 2.5 μl FVIIa (100 nM final concentration, obtained from American Diagnostica), 2.5 μl ligand and 4 μl substrate (10 mM, S2288 obtained from Chromogenix) in 42.5 μl buffer (50 mM Hepes pH 7.4, 1 mM CaCl2, 100 mM NaCl, 0,02% Tween 20). The assay was performed in 96-well plates (Costar). Incubation was performed at room temperature for five hours with absorbance read every 10 minutes.

Test [3] deals with T3, dopamine transporter (Homo sapiens, UniProt Q01959).
T3 construct: expressed in transfected cells; host or cells: COS-7
T3 sequence (Q01959 whole entry): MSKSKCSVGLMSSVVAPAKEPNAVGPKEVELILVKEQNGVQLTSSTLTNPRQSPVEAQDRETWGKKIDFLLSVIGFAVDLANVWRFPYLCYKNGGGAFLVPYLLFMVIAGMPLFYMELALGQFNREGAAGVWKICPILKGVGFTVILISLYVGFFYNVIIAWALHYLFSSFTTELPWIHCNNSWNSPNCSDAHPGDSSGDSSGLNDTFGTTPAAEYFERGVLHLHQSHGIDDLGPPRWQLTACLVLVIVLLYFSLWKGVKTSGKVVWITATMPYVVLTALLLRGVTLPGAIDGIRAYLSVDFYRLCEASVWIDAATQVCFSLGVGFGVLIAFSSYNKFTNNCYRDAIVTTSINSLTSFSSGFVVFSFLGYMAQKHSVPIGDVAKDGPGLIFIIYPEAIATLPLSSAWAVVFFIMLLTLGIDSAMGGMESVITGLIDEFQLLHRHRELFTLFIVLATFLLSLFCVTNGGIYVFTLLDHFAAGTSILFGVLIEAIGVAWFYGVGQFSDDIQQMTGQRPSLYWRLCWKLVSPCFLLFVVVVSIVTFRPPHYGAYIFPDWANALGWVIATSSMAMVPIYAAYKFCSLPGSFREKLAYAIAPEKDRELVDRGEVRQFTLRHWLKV
The experiment in a line: [3H]-dopamine uptake in COS-7 cells expressing wild-type dopamine transporter. It counts as cell-based. The note with it: for effect on dopamine transport: chelator by itself, without metal-ion. Here is the method: Competition analysis of uptake of [^3H]-dopamine in whole COS-7 cells expressing the dopamine transporter.
(§1) Methods—The dopamine transporter cDNA was introduced into COS-7 by the standard calcium phosphate transfection method. Two days post-transfection the cells were assayed for [^3H]-Dopamine uptake activity. The uptake assays was performed in 25 mM Hepes pH 7.4, 120 mM NaCl, 5 mM KCl, 1.2 mM CaCl2, 1.2 mM MgSO4, 1 mM ascorbic acid and 5 mM D-glucose and in the presence of various concentrations of unlabelled dopamine as indicated in the figures. The assay was performed in triplicate at 37° C. for 10 minutes, and terminated by washing with buffer twice and the addition of lysis buffer (48% urea, 2% NP-40 in 3M acetic acid).

Test [4] relates to metal-ion site engineered tachykinin NK1 receptors. The experiment in a line: Competition binding with [125I]-Substance P, library of inter-helical metal-ion sites engineered into NK1 receptor. The note with it: sites between TM-III and -V and between TM-V and -VI. Here is the method: COS-7 cells expressing various engineered forms of the NK1 receptor were analyzed by competition binding using [^125I]-Substance P as radioligand

The target in test [5] is T4, leukotriene LTB4 receptor (Homo sapiens, UniProt Q15722).
T4 construct: expressed in transfected cells; host or cells: COS-7
T4 sequence (Q15722 whole entry): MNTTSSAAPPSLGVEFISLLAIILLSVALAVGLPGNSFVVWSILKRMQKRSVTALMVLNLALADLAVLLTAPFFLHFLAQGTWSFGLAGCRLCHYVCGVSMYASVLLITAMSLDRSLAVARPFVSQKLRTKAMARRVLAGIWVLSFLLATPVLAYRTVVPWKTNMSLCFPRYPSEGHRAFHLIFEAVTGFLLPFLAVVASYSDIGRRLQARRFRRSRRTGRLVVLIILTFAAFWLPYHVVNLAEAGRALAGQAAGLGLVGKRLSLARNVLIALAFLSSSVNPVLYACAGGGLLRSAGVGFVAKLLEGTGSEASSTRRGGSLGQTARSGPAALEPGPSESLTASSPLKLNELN
Nature of the test: Whole cell competition binding with [3H]-LTB4 in COS-7 cells expressing wild type LTB4 receptor. The source says: Whole cell competition binding experiment with COS-7 cells expressing the wild type and mutant variants of the leukotriene LTB4 receptor using [^3H]-LTB4 as the radioligand.
Methods—The leukotriene LTB4 receptor cDNA was cloned by PCR from a leukocyte cDNA library, built into an eukaryotic expression vector and introduced into COS-7 cells by a standard calcium phosphate transfection method. One day after transfection the cells were transferred and seeded in multi-well plates for assay. The number of cells plated per well was chosen so as to obtain 5 to 10% binding of the radioligand added. Two days after transfection the cells were assayed for the presence of [^3H]-LTB4 binding activity. […] The assay was performed in duplicate for 3 hours at 4° C., and stopped by washing twice in buffer. Cell associated, receptor bound radioligand was determined by the addition of lysis buffer (48% urea, 2% NP-40 in 3M acetic acid).

Test [6] has as its target T5, NK1 receptor [HisIII:08;CysVII:06] (Homo sapiens, UniProt P25103, M291C/P112H).
T5 construct: expressed in transfected cells; host or cells: COS-7
The experiment in a line: Competition binding with [125I]-Substance P, NK1 receptor [HisIII:08;CysVII:06] site. The conditions noted are these: all in complex with Zn(II). As for the experimental part: (§2) Binding of [^125I]-Substance P was analysed in COS-7 cells expressing NK1 receptor which have been engineered to bind the zinc metal-ion. Ligand binding is presented in competiton with the zinc metal-ion, the zinc-1,10-phenanthroline complex and with other zinc-chelator complexes as indicated. For structures of the chelators, see Appendix.

Test [7] concerns the target T6, NK1 receptor [HisV:05,HisVI:24] (Homo sapiens, UniProt P25103, Y272H).
T6 construct: expressed in transfected cells; host or cells: COS-7
The experiment in a line: Competition binding with [125I]-Substance P, NK1 receptor [HisV:05,HisVI:24] site. The note with it: all in complex with Zn(II). Here is the method: as §2

Test [8] concerns the target T7, [H193K] dopamine transporter (Homo sapiens, UniProt Q01959, H193K).
T7 construct: expressed in transfected cells; host or cells: COS-7
Nature of the test: [3H]-dopamine uptake in COS-7 cells, [H193K] mutant dopamine transporter. It counts as cell-based. The note with it: mutational substitution of His193; chelator in complex with Zn(II). Here is the method: Panel B. Dopamine uptake analysis in a mutant form of the dopamine transporter, [H193K], in which binding of the metal-ion complex has been eliminated (Noregaard et al. EMBO J. (1998) 17: 4266-4273).
as §1

T5 sequence (P25103 whole entry P112H/M291C): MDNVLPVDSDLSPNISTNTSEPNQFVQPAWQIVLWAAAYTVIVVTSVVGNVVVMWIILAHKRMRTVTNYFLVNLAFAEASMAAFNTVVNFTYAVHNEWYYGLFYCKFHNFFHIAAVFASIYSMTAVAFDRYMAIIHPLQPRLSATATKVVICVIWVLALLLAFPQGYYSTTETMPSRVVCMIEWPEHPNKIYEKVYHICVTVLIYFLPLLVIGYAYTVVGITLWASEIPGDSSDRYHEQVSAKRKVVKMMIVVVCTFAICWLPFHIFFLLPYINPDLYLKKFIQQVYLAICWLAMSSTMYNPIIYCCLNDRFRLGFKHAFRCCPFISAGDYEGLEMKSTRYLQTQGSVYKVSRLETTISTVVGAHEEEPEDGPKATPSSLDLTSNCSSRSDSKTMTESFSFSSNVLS
T6 sequence (P25103 whole entry Y272H): as the sequence (P25103 whole entry P112H/M291C) above, with H112P, Y272H, C291M counted along it
T7 sequence (Q01959 whole entry H193K): as the sequence (Q01959 whole entry) above, with H193K counted along it

Consider `c1cnc2c(c1)ccc1cccnc12` [1,10-phenanthroline, reference compound], for which the “effect on [125I]-galanin binding” value in test [1] (chelator alone, without metal-ion) is on record as “no effect”. The “effect on the activity of FVIIa” value in test [2] was “no effect”.
Regarding `c1ccc(-c2ccccn2)nc1` [2,2′-bipyridine, reference compound], in test [3], the “effect on dopamine transport” value was “no effect”. Moreover, the “effect on the activity of FVIIa” value in test [2] is on record as “no effect”.
In the case of `[Cl][Cu][Cl]` [Cu(II), reference compound], the “increase in affinity versus wild-type” value in test [4] was “no increase or just a marginal increase in affinity”. This compound yielded a Hill coefficient in test [1] (displacement of [125I]-galanin) of −4. Besides, the IC50 in test [5] (wild type receptor, whole COS-7 cells, read-out: IC50, displacement of [3H]-LTB4) turned out to be 70 µM.
For `OCc1ccc2ccc3ccc(CO)nc3c2n1` [compound 133, 2,9-dimethanol-1,10-phenanthroline], in test [1], the “binding affinity compared with the basic chelator 1,10-phenanthroline” value is listed as “decrease the affinity”.
Turning to `c1ccc(-c2cc3cccnc3c3ncccc23)cc1` [compound 134, 5-phenyl-1,10-phenanthroline], the “potency, fold more potent than phenanthroline” value in test [6] came to 7 fold. For the same compound, the “binding affinity compared with the basic chelator 1,10-phenanthroline” value in test [1] was “bound like 1,10′-phenanthroline”. Moreover, the “potency compared with phenanthroline” value in test [7] is recorded as “only slightly more potent”. In addition, the “binding of the metal-ion chelator complex compared with 1,10-phenanthroline” value in test [5] (chelator in complex with Cu(II)) is “entirely eliminated the binding; also recorded: totally inactive”.
Consider `ClC(Cl)(Cl)c1ccc2ccc3ccc(C(Cl)(Cl)Cl)nc3c2n1` [compound 135, 2,9-bis(trichloromethyl)-1,10-phenanthroline], for which the “binding compared with 1,10′-phenanthroline” value in test [6] is given as “almost similar”. For the same compound, in test [7], the “binding, fold better than 1,10-phenanthroline” value is 6 fold. For the same compound, the “potency of inhibiting FVIIa compared with the basic chelator complex” value in test [2] (chelator in complex with Zn(II)) is on record as “increased potency”.
`O=C1C(=O)c2cccnc2-c2ncccc21` [compound 175, 1,10-phenanthroline-5,6-dione]: in test [6], the “binding compared with 1,10′-phenanthroline” value is “almost similar”. For the same compound, the “binding, fold better than 1,10-phenanthroline” value in test [7] is given as 10 fold.
As to `Cc1cc2cccnc2c2ncccc12` [compound 176, 5-methyl-1,10-phenanthroline], in test [1], the “binding affinity compared with the basic chelator 1,10-phenanthroline” value is reported as “increase the binding affinity”.
For the compound `CC(=O)O/N=C(\N)c1ccccn1` [compound 210, 2-pyridylamidoxime, O-acetyl], in test [3], the “effect on dopamine transport” value is listed as “does not affect”. Also, the “potency of blocking dopamine transport, fold higher than free Zn(II)” value in test [3] (chelator in complex with Zn(II), mono-component) was “approx 10 fold”. In test [8], the “effect of the metal-ion chelator complex on dopamine transport” value is “eliminated”.
